≈ marks a conversion by molar mass, not a printed value. Like-named read-outs stand apart in the source and are kept apart here.
Experiments:
[1] = Hydrophobicity by retention in analytical RP-HPLC (% MeCN at peak elution); type: physicochemical; conditions: for % MeCN at Elution, Aeris Peptide: Phenomenex Aeris Peptide XB-C18 column; for % MeCN at Elution, Aeris Peptide / % MeCN at Elution, Luna Omega / % MeCN at Elution, Supelco Discovery: gradient 0→60% B during 15 min; for % MeCN at Elution, Luna: Phenomenex Luna C18(2) column, RP-HPLC gradient 0→60% B during 15 min, relative hydrophobicity; for % MeCN at Elution, Luna Omega: Phenomenex Luna Omega Polar C18 column; for % MeCN at Elution, Supelco Discovery: Supelco Discovery BIO Wide pore C18 column
Procedure: For each peptide/β-peptoid hybrid oligomer, the retention time in RP-HPLC was measured on four different columns (details shown in Table 2): Phenomenex Luna C18(2) column (recommended for hydrophobic compounds [49]), Phenomenex Luna Omega Polar C18 column (recommended for both very polar and non-polar compounds [50]) as well as Phenomenex Aeris Peptide XB-C18 [51] and Sigma-Aldrich Supelco Discovery BIO Wide pore C18 [52] columns, which both are recommended for analysis of peptides. The retention times of the compounds on each column were used to calculate the acetonitrile concentration at peak elution (denoted merely as % MeCN; Table 1). As expected, the % MeCN for each compound varied somewhat between the four columns.
Starting materials and solvents were acquired from commercial suppliers (Iris Biotech, Markredwitz, Germany; Fluorochem, Hadfield, UK; and Merck, Darmstadt, Germany) and used without further purification. Water used for analytical and preparative high-performance liquid chromatography (HPLC) was filtered through a 0.22-μm capsule filter using an Evoqua LaboStar Pro TWF UV system. Purity and retention time of each peptidomimetic were determined by analytical HPLC by using a Phenomenex Luna Omega Polar C18 column (150 × 4.6 mm; particle size: 3 μm; pore size: 100 Å) on a Shimadzu Prominence and Shimadzu Nexera system using an aqueous acetonitrile (MeCN, VWR, Søborg, Denmark) gradient with 0.1% trifluoroacetic acid (TFA, Iris Biotech, Markredwitz, Germany) added (eluent A: 5:95 MeCN–H2O + 0.1% TFA, eluent B: 95:5 MeCN–H2O + 0.1% TFA); a flow rate of 0.8 mL/min was used. For elution of peptidomimetics, a linear gradient of 0% to 60% B during 15 min was used with UV detection at λ = 220 nm. […] Retention time of each peptidomimetic was also determined by using a Phenomenex Luna C18(2) column (150 × 4.6 mm; particle size: 3 μm; pore size: 100 Å), a Phenomenex Aeris Peptide XB-C18 column (150 × 4.6 mm; particle size: 3.6 μm; pore size: 100 Å), and a Sigma-Aldrich Supelco Discovery BIO Wide pore C18 column (150 × 4.6 mm, particle size: 3 µm; pore size: 300 Å). For each peptidomimetic, the percentage of MeCN at peak elution was calculated from the retention time by using the following formula:(1) %MeCN =0.95 (0.6Rt/15 min)+0.05 (1−0.6Rt/15 min)

E. coli ATCC 25922 = type: cell-based, Escherichia coli; conditions: ATCC 25922, 20 h
Procedure: (§1) MIC values of the peptidomimetics were evaluated by using the modified Hancock lab protocol in non-binding polystyrene microtiter plates. Bacterial suspensions of ~5 × 10^5 CFU/mL in Mueller-Hinton broth (Difco, Sparks, MD, USA) were prepared with Mg^2+ and Ca^2+ concentrations of 4 mg/L each. The compounds were dissolved in H2O and diluted in 0.01% acetic acid, 0.2% BSA (final concentration). Aliquots (11 µL) of test compounds were then transferred to wells containing bacterial suspensions (100 µL). Low-binding sterile tubes and tips (Axygen, Union City, CA, USA) were used for preparation and transfer of the solutions of the compounds. Following incubation for 20 h of the covered plates at 35 °C (±2 °C) with circular shaking at 180 rpm, the MICs were read.

E. coli NMI 3371/16 = type: cell-based, Escherichia coli; conditions: NMI 3371/16, 20 h
Procedure: as §1

E. coli NMI 3898/15 = type: cell-based, Escherichia coli; conditions: NMI 3898/15, 20 h
Procedure: as §1

E. faecalis ATCC 29212 = type: cell-based; conditions: ATCC 29212, 20 h
Procedure: as §1

K. pneumoniae ATCC 13883 = type: cell-based; conditions: ATCC 13883, 20 h
Procedure: as §1

[2] = tested on: P. aeruginosa NMI 7197/19; type: cell-based, Pseudomonas aeruginosa; conditions: NMI 7197/19, 20 h
Procedure: as §1

P. aeruginosa PAO1 = type: cell-based, Pseudomonas aeruginosa
Procedure: as §1

A. baumannii ATCC 19606 = type: cell-based, Acinetobacter baumannii; conditions: ATCC 19606, 20 h
Procedure: as §1

A. baumannii NMI 3658/17 = type: cell-based, Acinetobacter baumannii; conditions: NMI 3658/17, 20 h
Procedure: as §1

S. aureus ATCC 29213 = type: cell-based, Staphylococcus aureus; conditions: ATCC 29213, 20 h
Procedure: as §1

[3] = Determination of hemolytic activity; type: cell-based; conditions: red blood cell suspension in PBS buffer, human red blood cells at 400 µg/mL, 37 °C
Procedure: The lysis of human red blood cells was measured almost as previously described, albeit with modifications. In brief, a suspension of freshly drawn human red blood cells (hRBCs) was washed three times with PBS buffer and centrifuged two times for 5 min at 2500 rpm. A two-fold serial dilution of compounds in PBS buffer was prepared. Plates (conical-bottomed 96-well plates) with three replicate wells per dilution, each containing 1% red blood cell suspension, were prepared and dosed with the test compound to achieve a final concentration of 400 μg/mL in a total volume of 100 μL. The plates were incubated (37 °C) for 60 min with mild agitation, and then the cells were pelleted by centrifugation at 1500 rpm for 5 min. The supernatants (50 μL) were then transferred to a fresh 96-well plate, and the concentration of hemoglobin was detected by measuring the OD at 405 nm. The OD of cells incubated with 1% SDS defined 100% hemolysis, while the OD of cells incubated with PBS buffer defined 0% hemolysis. The concentration tested was 400 μg/mL (only average values are stated in Table 5). The percent hemolysis was calculated by using the formula:(3) Hemolysis (%)=100×[Asample−Aneg.control/Apos.control−Aneg.control]

Compound: NCCCC[C@H](NC(=O)CCN(Cc1ccc(F)cc1)C(=O)[C@H](CCCCN)NC(=O)CCN(Cc1ccc(F)cc1)C(=O)[C@H](CCCCN)NC(=O)CCN(Cc1ccc(F)cc1)C(=O)[C@H](CCCCN)NC(=O)CCN(Cc1ccc(F)cc1)C(=O)[C@H](CCCCN)NC(=O)CCN(Cc1ccc(F)cc1)C(=O)[C@H](CCCCN)NC(=O)COCCOCCN)C(=O)N(CCC(=O)NCCOCCOCC(N)=O)Cc1ccc(F)cc1 [Compound 4, H-sPEG2-[X]6-sPEG2-NH2]
- % MeCN at Elution, Aeris Peptide [1]: 39.2 % MeCN
- % MeCN at Elution, Luna [1]: 41.3 % MeCN
- % MeCN at Elution, Luna Omega [1]: 42.1 % MeCN
- % MeCN at Elution, Supelco Discovery [1]: 41.4 % MeCN
- MIC, EC (E. coli ATCC 25922): 8 to 16 µg/mL
- MIC, E. coli NMI 3371/16 (E. coli NMI 3371/16): 8 to 16 µg/mL
- MIC, E. coli NMI 3898/15 (E. coli NMI 3898/15): 16 to 32 µg/mL
- MIC, EF (E. faecalis ATCC 29212): >64 µg/mL
- MIC, KP (K. pneumoniae ATCC 13883): >64 µg/mL
- MIC, P. aeruginosa NMI 7197/19 [2]: >64 µg/mL
- MIC, PA (P. aeruginosa PAO1; PAO1, 20 h): 16 µg/mL (≈ 7.44 µM)
- MIC, AB (A. baumannii ATCC 19606): 4 µg/mL (≈ 1.86 µM)
- MIC, A. baumannii NMI 3658/17 (A. baumannii NMI 3658/17): 4 to 8 µg/mL
- MIC, SA (S. aureus ATCC 29213): >64 µg/mL
- hemolysis at 60 min [3]: 5.4%

Compound: NCCCC[C@H](NC(=O)CCN(Cc1ccc(F)cc1)C(=O)[C@H](CCCCN)NC(=O)CCN(Cc1ccc(F)cc1)C(=O)[C@H](CCCCN)NC(=O)CCN(Cc1ccc(F)cc1)C(=O)[C@H](CCCCN)NC(=O)CCN(Cc1ccc(F)cc1)C(=O)[C@H](CCCCN)NC(=O)CCN(Cc1ccc(F)cc1)C(=O)[C@H](CCCCN)NC(=O)COCCOCCN)C(=O)N(CCC(N)=O)Cc1ccc(F)cc1 [Compound 2, H-sPEG2-[X]6-NH2]
- % MeCN at Elution, Aeris Peptide [1]: 39.4 % MeCN
- % MeCN at Elution, Luna [1]: 41.4 % MeCN
- % MeCN at Elution, Luna Omega [1]: 41.9 % MeCN
- % MeCN at Elution, Supelco Discovery [1]: 41.5 % MeCN
- MIC, EC (E. coli ATCC 25922): 8 µg/mL (≈ 3.99 µM)
- MIC, E. coli NMI 3371/16 (E. coli NMI 3371/16): 8 µg/mL (≈ 3.99 µM)
- MIC, E. coli NMI 3898/15 (E. coli NMI 3898/15): 16 µg/mL (≈ 7.97 µM)
- MIC, EF (E. faecalis ATCC 29212): >64 µg/mL
- MIC, KP (K. pneumoniae ATCC 13883): >64 µg/mL
- MIC, P. aeruginosa NMI 7197/19 [2]: >64 µg/mL
- MIC, PA (P. aeruginosa PAO1; PAO1, 20 h): 32 µg/mL (≈ 15.9 µM)
- MIC, AB (A. baumannii ATCC 19606): 4 µg/mL (≈ 1.99 µM)
- MIC, A. baumannii NMI 3658/17 (A. baumannii NMI 3658/17): 4 µg/mL (≈ 1.99 µM)
- MIC, SA (S. aureus ATCC 29213): 32 to 64 µg/mL
- hemolysis at 60 min [3]: 2.4%

Compound: NCCCC[C@H](NC(=O)CCN(Cc1ccc(F)cc1)C(=O)[C@H](CCCCN)NC(=O)CCN(Cc1ccc(F)cc1)C(=O)[C@H](CCCCN)NC(=O)CCN(Cc1ccc(F)cc1)C(=O)[C@H](CCCCN)NC(=O)CCN(Cc1ccc(F)cc1)C(=O)[C@H](CCCCN)NC(=O)CCN(Cc1ccc(F)cc1)C(=O)[C@H](CCCCN)NC(=O)CCOCCOCCOCCOCCN)C(=O)N(CCC(N)=O)Cc1ccc(F)cc1 [Compound 3, H-sPEG4-[X]6-NH2]
- % MeCN at Elution, Aeris Peptide [1]: 39.6 % MeCN
- % MeCN at Elution, Luna [1]: 41.9 % MeCN
- % MeCN at Elution, Luna Omega [1]: 42.4 % MeCN
- % MeCN at Elution, Supelco Discovery [1]: 42.6 % MeCN
- MIC, EC (E. coli ATCC 25922): 8 µg/mL (≈ 3.79 µM)
- MIC, E. coli NMI 3371/16 (E. coli NMI 3371/16): 8 µg/mL (≈ 3.79 µM)
- MIC, E. coli NMI 3898/15 (E. coli NMI 3898/15): 16 µg/mL (≈ 7.59 µM)
- MIC, EF (E. faecalis ATCC 29212): >64 µg/mL
- MIC, KP (K. pneumoniae ATCC 13883): >64 µg/mL
- MIC, P. aeruginosa NMI 7197/19 [2]: >64 µg/mL
- MIC, PA (P. aeruginosa PAO1; PAO1, 20 h): 32 to 64 µg/mL
- MIC, AB (A. baumannii ATCC 19606): 4 to 8 µg/mL
- MIC, A. baumannii NMI 3658/17 (A. baumannii NMI 3658/17): 4 to 8 µg/mL
- hemolysis at 60 min [3]: 8.1%

Compound: NCCCC[C@H](NC(=O)CCN(Cc1ccc(F)cc1)C(=O)[C@H](CCCCN)NC(=O)CCN(Cc1ccc(F)cc1)C(=O)[C@H](CCCCN)NC(=O)CCN(Cc1ccc(F)cc1)C(=O)[C@H](CCCCN)NC(=O)CCN(Cc1ccc(F)cc1)C(=O)[C@H](CCCCN)NC(=O)CCN(Cc1ccc(F)cc1)C(=O)[C@H](CCCCN)NC(=O)CCOCCOCCOCCOCCN)C(=O)N(CCC(=O)NCCOCCOCCOCCOCCC(N)=O)Cc1ccc(F)cc1 [Compound 5, H-sPEG4-[X]6-sPEG4-NH2]
- % MeCN at Elution, Aeris Peptide [1]: 40.0 % MeCN
- % MeCN at Elution, Luna [1]: 42.2 % MeCN
- % MeCN at Elution, Luna Omega [1]: 43.2 % MeCN
- % MeCN at Elution, Supelco Discovery [1]: 42.5 % MeCN
- MIC, EC (E. coli ATCC 25922): 16 µg/mL (≈ 6.79 µM)
- MIC, E. coli NMI 3371/16 (E. coli NMI 3371/16): 8 to 16 µg/mL
- MIC, E. coli NMI 3898/15 (E. coli NMI 3898/15): 32 µg/mL (≈ 13.6 µM)
- MIC, EF (E. faecalis ATCC 29212): >64 µg/mL
- MIC, KP (K. pneumoniae ATCC 13883): >64 µg/mL
- MIC, P. aeruginosa NMI 7197/19 [2]: >64 µg/mL
- MIC, PA (P. aeruginosa PAO1; P. aeruginosa PAO1 (WT)): > 64 µg/mL
- MIC, A. baumannii NMI 3658/17 (A. baumannii NMI 3658/17): 16 µg/mL (≈ 6.79 µM)
- MIC, SA (S. aureus ATCC 29213): >64 µg/mL
- hemolysis at 60 min [3]: 6.4%
